In patent US10287641B2, “Lactobacillus apinorum and Lactobacillus mellifer from honeybees in medical, food and feed applications” (CONCELLAE AB, priority 2014, dated 2019):

System: clinical isolates of pathogenic wound bacteria and yeast
Assay: Dual culture overlay assays, whole pathogen panel and antibiotic controls
Type: cell-based
Conditions: antibiotic 30 μg; pathogen of each column not given
Procedure: Used pathogens (Table 2) were cultivated in Nutrient broth (Oxoid) at 37° C. during 24 hours prior to test in the antagonism assays.
Dual Culture Overlay Assay Antimicrobial activity was measured by using dual culture overlay assay. The Lactobacillus apinorum and Lactobacillus mellifer strains (Table 2) were put into a filter disk and placed onto supplemented MRS agar plates followed by overnight incubation at 35° C.

| Structure (SMILES) | diameter of the inhibition zone, antibiotic control |
| --- | --- |
| CO/N=C(\C(=O)N[C@@H]1C(=O)N2C(C(=O)O)=C(COC(N)=O)CS[C@H]12)c1ccco1 [Cx, Cefuroxime sodium] | 28 millimetres |
| O=C(N[C@H](CO)[C@H](O)c1ccc([N+](=O)[O-])cc1)C(Cl)Cl [Cl, Chloramphenicol] | ^S19 millimetres |
